Values belong to the molecule of their own block, whether it stands above or below them. Active and inactive are the calls of the source.
Key:
[1] = biological target: T1, Heat shock factor protein 1 (Mus musculus, UniProt P38532); experiment: inhibition of MG132-induced HSE-luciferase signal, confirmation, cell-based, NIH3T3, luminescence, dose retest (AID 2382); assay type: functional;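 note: NIH3T3 fibroblasts with HSF1-driven luciferase reporter stressed by proteasome inhibitor MG132; luminescence from HSF1-driven luciferase expression after 8 hours of MG132 stress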
T1 sequence (P38532 whole entry): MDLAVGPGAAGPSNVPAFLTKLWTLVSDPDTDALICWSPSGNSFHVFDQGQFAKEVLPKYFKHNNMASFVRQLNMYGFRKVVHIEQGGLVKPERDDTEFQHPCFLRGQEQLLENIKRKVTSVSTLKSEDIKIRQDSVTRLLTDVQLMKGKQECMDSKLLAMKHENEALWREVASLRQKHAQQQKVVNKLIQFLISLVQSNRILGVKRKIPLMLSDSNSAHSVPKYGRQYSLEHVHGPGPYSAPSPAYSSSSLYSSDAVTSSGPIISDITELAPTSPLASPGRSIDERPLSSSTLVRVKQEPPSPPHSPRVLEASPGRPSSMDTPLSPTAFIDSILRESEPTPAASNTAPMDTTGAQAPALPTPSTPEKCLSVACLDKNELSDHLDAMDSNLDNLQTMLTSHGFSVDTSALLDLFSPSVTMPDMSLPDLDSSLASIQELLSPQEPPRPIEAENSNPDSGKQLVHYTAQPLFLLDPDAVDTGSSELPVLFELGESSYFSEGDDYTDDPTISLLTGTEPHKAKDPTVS

[2] = biological target: T2, RNA-binding protein pos-1 (Caenorhabditis elegans, UniProt G5EF15); experiment: inhibitors of POS-1/mex-3 RNA binding, dose response, biochemical, fluorescence polarization (AID 1964);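 note: purified POS-1 fused to maltose binding protein made in E. coli; potency of compounds blocking POS-1 binding to fluorescent RNA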
T2 sequence (G5EF15 whole entry): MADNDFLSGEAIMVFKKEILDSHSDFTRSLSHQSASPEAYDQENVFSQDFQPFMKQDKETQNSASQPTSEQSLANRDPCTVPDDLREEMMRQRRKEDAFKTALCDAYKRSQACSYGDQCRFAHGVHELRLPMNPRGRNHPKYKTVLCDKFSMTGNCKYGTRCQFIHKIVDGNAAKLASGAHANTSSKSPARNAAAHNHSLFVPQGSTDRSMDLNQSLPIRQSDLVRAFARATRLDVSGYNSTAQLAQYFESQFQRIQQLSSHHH

[3] = biological target: T3, Zinc finger protein mex-5 (Caenorhabditis elegans, UniProt Q9XUB2); experiment: MEX-5/TCR-2 RNA interaction inhibitors, dose response, biochemical, C. elegans, fluorescence polarization (AID 1960)
T3 sequence (Q9XUB2 whole entry): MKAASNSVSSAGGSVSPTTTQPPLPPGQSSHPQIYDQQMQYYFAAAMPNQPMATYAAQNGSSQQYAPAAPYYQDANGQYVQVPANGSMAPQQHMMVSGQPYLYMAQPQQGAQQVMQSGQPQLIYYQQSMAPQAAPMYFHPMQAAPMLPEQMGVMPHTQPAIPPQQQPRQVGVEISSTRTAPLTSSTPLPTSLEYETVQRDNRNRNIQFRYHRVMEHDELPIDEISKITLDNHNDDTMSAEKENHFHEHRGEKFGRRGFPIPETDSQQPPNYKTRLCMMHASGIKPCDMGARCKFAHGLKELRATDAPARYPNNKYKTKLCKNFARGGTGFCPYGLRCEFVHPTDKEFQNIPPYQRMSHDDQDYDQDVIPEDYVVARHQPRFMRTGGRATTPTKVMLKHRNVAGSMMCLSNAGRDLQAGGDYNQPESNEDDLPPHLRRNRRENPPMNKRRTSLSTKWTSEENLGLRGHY

[4] = inhibitors of intracellular T. cruzi replication, confirmation, NIH3T3 host cells, beta-gal luminescence (AID 2044); assay type: functional, cell-based;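 note: intracellular parasites grown in NIH/3T3 mouse fibroblasts as host cells; luminescent beta-galactosidase reporter signal from transgenic T. cruzi replicating inside host cells; inhibitors lower the luminescence signal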
[5] = cytotoxicity toward NIH3T3 fibroblasts, dose response, counter-screen, cell-based, ATP luminescence, mouse fibroblasts (AID 2010); assay type: functional;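 note: cells exposed to compound for about 90 hours before reading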
Leucine aminopeptidase = biological target: T4, Leucine aminopeptidase (Plasmodium falciparum 3D7, UniProt Q8IL11); experiment: P. falciparum M17LAP inhibitors, primary screen, biochemical, fluorogenic H-Leu-NHMec substrate, 1536-well (AID 1619); assay type: functional
T4 sequence (Q8IL11 whole entry): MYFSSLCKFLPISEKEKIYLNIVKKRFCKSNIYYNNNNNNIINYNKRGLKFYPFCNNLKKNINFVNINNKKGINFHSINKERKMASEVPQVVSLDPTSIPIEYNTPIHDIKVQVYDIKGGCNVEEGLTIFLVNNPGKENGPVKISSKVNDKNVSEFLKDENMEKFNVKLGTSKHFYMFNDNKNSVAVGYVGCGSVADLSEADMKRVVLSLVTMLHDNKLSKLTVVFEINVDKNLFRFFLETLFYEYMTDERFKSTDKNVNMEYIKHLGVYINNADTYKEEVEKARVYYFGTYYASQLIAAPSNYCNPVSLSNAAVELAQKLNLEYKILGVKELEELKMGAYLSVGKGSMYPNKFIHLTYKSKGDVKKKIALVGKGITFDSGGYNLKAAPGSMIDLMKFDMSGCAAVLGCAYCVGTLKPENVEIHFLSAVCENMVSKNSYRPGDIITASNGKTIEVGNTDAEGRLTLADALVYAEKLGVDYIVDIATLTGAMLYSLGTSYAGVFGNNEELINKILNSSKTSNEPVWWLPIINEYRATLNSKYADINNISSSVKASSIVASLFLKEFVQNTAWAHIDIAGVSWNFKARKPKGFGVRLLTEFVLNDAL

[6] = HepG2 cell cytotoxicity, dose response, cytotoxicity control for Shn3 inhibitor project, CellTiter-Glo, cherry-picked (AID 624134); assay type: functional, cell-based
[7] = Shn3 3'UTR reporter inhibitors, dose response, cell-based, Clone20 osteoblasts, firefly luciferase, cherry-picked (AID 624132); assay type: functional;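 note: firefly luciferase luminescence from reporter carrying the Shn3 3'UTR in osteoblasts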
[8] = control 3'UTR Renilla luciferase suppression, dose response, counter-screen for Shn3 inhibitor project, cell-based, Clone20-Shn3RL, cherry-picked (AID 624133); assay type: functional
[9] = biological target: T5, Rac GTPase-activating protein 1 (Homo sapiens, UniProt Q9H0H5); experiment: MgcRacGAP GTPase-activating activity inhibitors, confirmation, biochemical, ADP Hunter fluorescence, primary and confirmatory (AID 624330); assay type: functional
T5 sequence (Q9H0H5 whole entry): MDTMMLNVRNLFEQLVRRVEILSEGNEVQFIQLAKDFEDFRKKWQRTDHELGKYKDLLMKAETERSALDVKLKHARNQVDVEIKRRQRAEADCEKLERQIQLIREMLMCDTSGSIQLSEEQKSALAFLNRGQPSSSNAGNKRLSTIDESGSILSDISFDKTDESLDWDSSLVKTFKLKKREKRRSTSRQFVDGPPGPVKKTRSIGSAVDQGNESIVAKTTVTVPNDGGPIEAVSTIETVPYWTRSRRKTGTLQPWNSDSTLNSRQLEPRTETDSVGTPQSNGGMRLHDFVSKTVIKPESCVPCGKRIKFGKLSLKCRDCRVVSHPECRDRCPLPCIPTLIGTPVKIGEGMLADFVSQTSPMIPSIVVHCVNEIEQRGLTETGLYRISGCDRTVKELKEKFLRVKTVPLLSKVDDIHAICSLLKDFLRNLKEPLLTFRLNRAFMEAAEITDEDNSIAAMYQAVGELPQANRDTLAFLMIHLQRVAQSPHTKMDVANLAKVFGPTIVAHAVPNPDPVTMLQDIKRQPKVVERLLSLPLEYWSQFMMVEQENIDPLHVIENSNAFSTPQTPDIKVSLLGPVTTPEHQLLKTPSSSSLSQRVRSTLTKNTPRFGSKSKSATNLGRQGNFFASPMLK

Large T antigen = Large T antigen (Simian virus 40, UniProt P03070); assay type: functional, Betapolyomavirus macacae;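 note: Confirmatory-stage PubChem screen for compounds that inhibit SV40 T antigen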
Chain of Large T antigen (P03070 whole entry): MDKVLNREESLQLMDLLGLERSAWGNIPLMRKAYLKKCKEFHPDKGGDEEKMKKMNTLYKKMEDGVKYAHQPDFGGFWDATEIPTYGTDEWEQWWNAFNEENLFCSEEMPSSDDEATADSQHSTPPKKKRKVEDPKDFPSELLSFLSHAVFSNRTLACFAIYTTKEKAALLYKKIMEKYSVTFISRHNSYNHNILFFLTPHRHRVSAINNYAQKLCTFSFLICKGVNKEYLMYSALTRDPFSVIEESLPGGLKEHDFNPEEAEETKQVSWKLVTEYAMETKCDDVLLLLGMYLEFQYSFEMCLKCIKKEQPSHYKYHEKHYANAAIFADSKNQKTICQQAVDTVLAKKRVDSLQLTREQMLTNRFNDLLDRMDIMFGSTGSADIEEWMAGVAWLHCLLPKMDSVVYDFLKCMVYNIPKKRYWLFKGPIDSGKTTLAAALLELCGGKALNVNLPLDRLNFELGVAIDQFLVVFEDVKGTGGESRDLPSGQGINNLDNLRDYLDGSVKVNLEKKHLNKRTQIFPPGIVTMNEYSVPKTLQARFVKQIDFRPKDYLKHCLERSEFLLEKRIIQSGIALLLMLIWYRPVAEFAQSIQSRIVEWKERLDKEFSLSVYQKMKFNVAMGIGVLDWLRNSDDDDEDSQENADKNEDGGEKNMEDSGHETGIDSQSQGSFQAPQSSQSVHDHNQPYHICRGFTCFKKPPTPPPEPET

[10] = biological target: T6, Ubiquitin-conjugating enzyme E2 N (Homo sapiens, UniProt P61088); assay type: functional;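 note: Dose-response confirmation in a TR-FRET assay detecting UBC13-driven polyubiquitin chain formation, inhibition measured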
T6 sequence (P61088 whole entry): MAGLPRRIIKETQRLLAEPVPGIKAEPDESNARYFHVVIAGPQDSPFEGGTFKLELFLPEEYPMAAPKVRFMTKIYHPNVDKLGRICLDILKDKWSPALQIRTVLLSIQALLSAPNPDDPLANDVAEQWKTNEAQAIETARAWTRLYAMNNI

Cytochrome P450 3A4 = Cytochrome P450 3A4 (Homo sapiens, UniProt P08684);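 note: CYP3A4 tested as one member of a cytochrome P450 panel screen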
Chain of Cytochrome P450 3A4 (P08684 whole entry): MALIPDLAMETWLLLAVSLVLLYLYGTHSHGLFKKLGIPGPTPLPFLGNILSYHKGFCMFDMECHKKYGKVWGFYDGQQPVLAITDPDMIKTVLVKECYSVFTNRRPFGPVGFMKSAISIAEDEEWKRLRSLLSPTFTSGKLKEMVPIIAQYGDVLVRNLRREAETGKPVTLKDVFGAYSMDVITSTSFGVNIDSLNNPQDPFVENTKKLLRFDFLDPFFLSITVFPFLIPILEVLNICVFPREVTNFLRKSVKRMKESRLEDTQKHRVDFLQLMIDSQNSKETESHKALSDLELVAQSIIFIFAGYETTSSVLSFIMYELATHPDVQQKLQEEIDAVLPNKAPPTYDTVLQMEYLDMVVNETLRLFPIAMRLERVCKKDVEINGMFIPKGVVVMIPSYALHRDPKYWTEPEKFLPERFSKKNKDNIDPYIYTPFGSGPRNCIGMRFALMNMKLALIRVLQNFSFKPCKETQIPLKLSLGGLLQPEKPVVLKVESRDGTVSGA

[11] = Luminescence Cell-Based Dose Retest to Confirm Inhibitors of Cancer Stem Cells. [Related pubchem assays (depositor defined):AID2717, AID2721]; assay type: functional; settings: Homo sapiens
H9c2 = experiment: cells; assay type: functional, cell-based; settings: Rattus norvegicus, H9c2, Myocardium;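 note: confirmatory concentration-response retest of ultra-high-throughput screening hits for modulation of myocardial damage; cell death induced by hydrogen peroxide oxidative stress; compound pretreatment for 60 min then peroxide exposure for 2 h; potency is for protecting the cells against peroxide damage rather than for killing them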

Compound: O=C(NNc1ccccc1)C(=O)NNS(=O)(=O)c1ccc([N+](=O)[O-])cc1
EC50 [4]: 0.87 µM (active) | EC50 [2]: 21.1 µM (active) | EC50 [5]: 9.05 µM (active) | EC50 [3]: 5.08 µM (active)

Compound: Cc1nc2ccccn2c1C(=O)NC1CCCc2ccccc21 (centres undefined)
AC50 [6]: 46.8 µM (active) | AC50 [7]: 2.47 µM (active) | AC50 [8]: 4.51 µM (active)

Compound: CN(c1ccccc1)S(=O)(=O)c1cccc(NC(=O)c2ccc3ncsc3c2)c1
AC50 [6]: 53.8 µM (active) | AC50 [7]: 17.2 µM (active) | AC50 [8]: 13.3 µM (active)

Compound: O=C(CN1C(=O)C2C3C=CC(C4CC34)C2C1=O)Nc1cnc2ccccc2c1 (centres undefined)
IC50 (Leucine aminopeptidase): 21.7 µM (active)

Compound: CC(C)NC(=O)C1CCN(C(=O)c2cc3sccc3n2Cc2ccc(F)cc2)CC1
AC50 [6]: 36.6 µM (active) | AC50 [7]: 5.05 µM (active) | AC50 [8]: 8.2 µM (active)

Compound: CCOc1ccc(C2OC34CCCCC3C(C#N)(C#N)C2(C#N)C(=N)O4)cc1OC (centres undefined)
EC50 [2]: 11.8 µM (active) | EC50 [3]: 10.5 µM (active)

Compound: CN(C)c1ccc(N/C=C/C(=O)C(F)(F)F)cc1
IC50 (Large T antigen): 9.98 µM (active)

Compound: CCOC(=O)c1ccc(NC(=O)c2[nH]cnc2C(=O)NCCNC(=O)c2nc[nH]c2C(=O)Nc2ccc(C(=O)OCC)cc2)cc1
AC50 [6]: 9.03 µM (active) | AC50 [7]: 5.51 µM (active) | AC50 [11]: 0.65 µM (active)

Compound: C=C1CC2(CC(c3ccccc3)OC(c3ccccc3)C2)OC1=O (centres undefined)
AC50 [6]: 38.4 µM (active) | AC50 [7]: 2.49 µM (active) | AC50 [8]: 7.45 µM (active)

Compound: COc1ccc(-c2cc(NC=O)c3ncc(-c4cccc(C(C)=O)c4)n3c2)cc1
IC50 (H9c2): > 79 µM (inactive)

Compound: COc1cccc(-c2cnc3c(NC(C)=O)cc(-c4cccc(NS(C)(=O)=O)c4)cn23)c1
IC50 (H9c2): > 79 µM (inactive)

Compound: C=C1CC(C(=O)N/N=C/c2ccc(O)cc2)C1
IC50 [9]: 42.6 µM (active) | IC50 (Large T antigen): 9.17 µM (active)

Second part, the molecule after the results:

EC50 [1]: > 195 µM (not active) | EC50 [2]: > 300 µM (inconclusive) | EC50 [3]: 18.1 µM (active)
Compound: Brc1ccc(C2=CC(c3ccco3)n3ncnc3N2)cc1 (centres undefined)

EC50 [2]: > 300 µM (not active) | EC50 [3]: > 300 µM (not active)
Compound: O=S(=O)(c1ccccc1)N1CCC(O)(CSc2ccc(Cl)cc2)CC1

IC50 (Leucine aminopeptidase): 42.5 µM (active)
Compound: COc1cccc2c(=O)n(CC(=O)N3CCC(C)CC3)ccc12

IC50 (Leucine aminopeptidase): 6.31 µM (active)
Compound: CCCCc1ccc(NC(=O)N[C@H](C(=O)O)C(C)CC)cc1 (some centres undefined)

IC50 [9]: 60.7 µM (active) | IC50 (Large T antigen): 33.1 µM (active)
Compound: Cc1c(N=C2NC(=O)/C(=C/c3ccc(O)cc3)S2)c(=O)n(-c2ccccc2)n1C

IC50 [10]: > 20 µM (inactive)
Compound: COc1ccc(Nc2cc(Nc3cc(OC)c(OC)c(OC)c3)ncn2)cc1

AC50 (Cytochrome P450 3A4): 3.16 µM (inconclusive) | EC50 [2]: > 300 µM (not active) | EC50 [3]: > 300 µM (not active)
Compound: CN(C)c1ccnc(Oc2ccc(Cl)cc2)c1C#N

EC50 [2]: > 300 µM (not active) | EC50 [3]: > 300 µM (not active)
Compound: O=Cc1c(-c2ccccc2)nc2ccccn12

IC50 (Large T antigen): > 100 µM (active)
Compound: COc1ccc(N2CCN(C(=O)CN(c3ccccc3)S(C)(=O)=O)CC2)cc1

EC50 [2]: > 300 µM (not active) | EC50 [3]: > 300 µM (not active)
Compound: CCOC(=O)c1c(-c2ccccc2)csc1NC(=O)/C(C#N)=C/c1ccc(OC)c(OC)c1

IC50 (Leucine aminopeptidase): 40.3 µM (active)
Compound: COC(=O)c1ccc(NCC(=O)N2CCCCCC2)cc1

IC50 [10]: > 20 µM (inactive)
Compound: CCN(CCCNC(=O)c1cc2c(-c3cccc(OC)c3)nn(C)c2s1)Cc1ccccc1

IC50 (Leucine aminopeptidase): 30.1 µM (active)
Compound: COc1ccc(/C(C)=C2\SC(=S)N(CCC(=O)O)C2=O)cc1

IC50 [10]: > 20 µM (inactive)
Compound: CCC(=O)NC(c1cc(Cl)c2ccccc2c1O)C1CC1 (centres undefined)

EC50 [2]: 54.6 µM (active) | EC50 [3]: > 150 µM (not active)
Compound: COc1ccc(C(=O)/C=C/Nc2ccc([N+](=O)[O-])cc2C)cc1OC

IC50 [10]: > 20 µM (inactive)
Compound: Cc1ccc2c(c1)c(/N=N/C(=N)S)c(O)n2Cc1ccccc1

EC50 [2]: > 300 µM (not active) | EC50 [3]: 68.8 µM (active)
Compound: CCNc1nn2ccccc2c1/C=C(\C#N)C(=O)OCC
